From paper PMC4159591, “Crystal structure of an HD‐GYP domain cyclic‐di‐GMP phosphodiesterase reveals an enzyme with a novel trinuclear catalytic iron centre” (Molecular Microbiology, 2013) come the findings set out here.

For assay [1], the target named is T1, PmGH (Persephonella marina, UniProt C0QQ26, C41A/C197A).
T1 construct: gene PERMA_0986; GAF + HD-GYP domains; synthetic gene in pET47b, E. coli BL21(DE3); N-terminal His6 tag cut with HRV 3C; homodimer; tri-iron centre
Briefly: X-ray crystal structure (crystal soak), […] A. The class given is binding. The following applies: crystals soaked with 30 mM GMP; tri-iron centre intact; active site, phosphate bridges M and H iron sites; monomer B only.

Assay [2] concerns the target T2, PmGH (Persephonella marina, UniProt C0QQ26, C41A/E185A/C197A).
T2 construct: gene PERMA_0986; GAF + HD-GYP domains; synthetic gene in pET47b, E. coli BL21(DE3); N-terminal His6 tag cut with HRV 3C; homodimer; tri-iron centre
The experiment in a line: HPLC phosphodiesterase assay. The class given is biochemical. The following applies: 100 uM c-di-GMP, pH 7.6, 10 mM MgCl2, 10 mM MnCl2, 0.5 mM EDTA, 37 C.

The target in assay [3] is T1, PmGH. The experiment in a line: X-ray crystal structure (crystal soak), […] A; hydrolysis in solution shown by HPLC. As to conditions: crystals soaked with 25 mM c-di-GMP and 100 mM EDTA; only G-site Fe bound; bound to monomer B only, HD-GYP active site. The assay is classed as binding.
For assay [4], the target named is T3, PmGH (Persephonella marina, UniProt C0QQ26, C41A/C197A/D305A).
T3 construct: gene PERMA_0986; GAF + HD-GYP domains; synthetic gene in pET47b, E. coli BL21(DE3); N-terminal His6 tag cut with HRV 3C; homodimer; tri-iron centre
T3 sequence (C0QQ26 entry or part of it C41A/C197A/D305A): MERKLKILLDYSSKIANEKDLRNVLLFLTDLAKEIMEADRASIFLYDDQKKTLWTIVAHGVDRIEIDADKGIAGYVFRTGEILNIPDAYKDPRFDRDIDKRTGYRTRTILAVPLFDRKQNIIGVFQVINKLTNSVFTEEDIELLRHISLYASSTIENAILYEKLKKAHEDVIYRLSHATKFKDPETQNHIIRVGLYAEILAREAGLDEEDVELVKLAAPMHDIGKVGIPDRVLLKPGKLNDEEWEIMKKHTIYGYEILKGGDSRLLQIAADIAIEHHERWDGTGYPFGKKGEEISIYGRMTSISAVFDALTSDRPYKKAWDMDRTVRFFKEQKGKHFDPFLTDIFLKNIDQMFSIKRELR
The experiment in a line: HPLC phosphodiesterase assay. The class given is biochemical. As to conditions: 100 uM c-di-GMP, pH 7.6, 10 mM MgCl2, 10 mM MnCl2, 0.5 mM EDTA, 37 C.

The target in assay [5] is GAF/HD-GYP protein from Persephonella marina EX-H1 (PmGH) (Persephonella marina EX-H1) (UniProt C0QQ26). The experiment in a line: crystal structure; hanging drop vapour diffusion, 0.1 M MES pH 6.5, 0.9 M succinic acid, 2% PEG 2000; space group I222 with one dimer in the asymmetric unit; native structure at 2.03 Å.

T1 sequence (C0QQ26 entry or part of it C41A/C197A): as the sequence (C0QQ26 entry or part of it C41A/C197A/D305A) above, with A305D counted along it
T2 sequence (C0QQ26 entry or part of it C41A/E185A/C197A): as the sequence (C0QQ26 entry or part of it C41A/C197A/D305A) above, with E185A, A305D counted along it

`Nc1nc2c(ncn2[C@@H]2O[C@H](COP(=O)(O)O)[C@@H](O)[C@H]2O)c(=O)[nH]1` [GMP]: the “X-ray crystal structure (crystal soak), 2.55 A” value at PmGH [1] was “Crystal soaks with GMP and c‐di‐GMP gave identical structures of PmGH in complex with GMP”. Turning to `Nc1nc2c(ncn2[C@@H]2O[C@@H]3COP(=O)(O)O[C@H]4[C@@H](O)[C@H](n5cnc6c(=O)[nH]c(N)nc65)O[C@@H]4COP(=O)(O)O[C@H]3[C@H]2O)c(=O)[nH]1` [c-di-GMP], the c-di-GMP hydrolysis result on PmGH [2] is recorded as “marked reduction in their ability to hydrolyse c‐di‐GMP, hydrolysis of c‐di‐GMP is still detected”; at PmGH [4] it was “marked reduction in their ability to hydrolyse c‐di‐GMP, hydrolysis of c‐di‐GMP is still detected”. Also, the “X-ray crystal structure (crystal soak), 2.68 A; hydrolysis in solution shown by” value at PmGH [3] is “revealed well defined difference electron density for a bound c‐di‐GMP molecule at the active site”. For the molecule “GAF/HD-GYP protein from Persephonella marina EX-H1 (PmGH) (from UniProt C0QQ26 2-363) (enzyme)”, in assay [5], the stoichiometry N was determined as 2.

As a reminder, the stoichiometry N is the number of molecules, sites or subunits per partner or assembly.
